In one series the target is IRAK1 (Homo sapiens, UniProt P51617). Nature of the series: IRAK1 Alexa kinase assay (TR-FRET, ADP tracer). It counts as biochemical. The procedure:
(§1) Select compounds described herein were evaluated for structure-activity analyses. For IRAK1, the following Alexa kinase assay procedure was followed: in the absence of an inhibitor, ADP formed by a kinase reaction will displace an Alexa Fluor 647 dye-labeled ADP tracer from an Eu3+-labeled anti-ADP antibody, resulting in a decrease in the time-resolved fluorescence resonance energy transfer (TR-FRET) signal. In the presence of an inhibitor, the amount of ADP formed by the kinase reaction is reduced, and the resulting intact antibody-tracer interaction produces a high TR-FRET signal. For IRAK4, the following Z-lyte kinase assay procedure was followed: phosphorylation-dependent protease susceptibility of a double-labeled peptide substrate is detected using fluorescence resonance energy transfer (FRET).

The target in a further series is T1, IRAK4 (Homo sapiens, UniProt Q9NWZ3).
T1 sequence (Q9NWZ3 1-460): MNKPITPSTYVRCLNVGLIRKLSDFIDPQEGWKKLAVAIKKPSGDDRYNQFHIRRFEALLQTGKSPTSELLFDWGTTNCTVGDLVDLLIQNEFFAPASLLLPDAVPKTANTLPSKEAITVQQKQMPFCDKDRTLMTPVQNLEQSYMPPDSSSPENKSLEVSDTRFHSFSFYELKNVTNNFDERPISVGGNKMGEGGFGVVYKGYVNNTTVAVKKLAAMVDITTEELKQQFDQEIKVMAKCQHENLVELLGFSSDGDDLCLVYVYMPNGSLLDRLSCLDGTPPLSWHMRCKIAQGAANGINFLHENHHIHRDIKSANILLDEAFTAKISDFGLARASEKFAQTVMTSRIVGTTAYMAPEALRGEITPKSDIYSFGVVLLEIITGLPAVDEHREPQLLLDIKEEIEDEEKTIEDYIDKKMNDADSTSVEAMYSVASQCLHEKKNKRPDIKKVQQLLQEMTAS
Description: IRAK4 Z-lyte kinase assay (FRET peptide substrate). It counts as biochemical. The procedure: as §1

In series [1] the test system is kinome (off-targets YSK4 and MEK3). Description: Kinome selectivity (kinome tree). The format is biochemical.
The target in another series is IRAK1 cysteine 302 (Homo sapiens, UniProt P51617). Description: Mass spec labelling studies. The format is binding.
Chain of IRAK1 cysteine 302 (P51617 whole entry): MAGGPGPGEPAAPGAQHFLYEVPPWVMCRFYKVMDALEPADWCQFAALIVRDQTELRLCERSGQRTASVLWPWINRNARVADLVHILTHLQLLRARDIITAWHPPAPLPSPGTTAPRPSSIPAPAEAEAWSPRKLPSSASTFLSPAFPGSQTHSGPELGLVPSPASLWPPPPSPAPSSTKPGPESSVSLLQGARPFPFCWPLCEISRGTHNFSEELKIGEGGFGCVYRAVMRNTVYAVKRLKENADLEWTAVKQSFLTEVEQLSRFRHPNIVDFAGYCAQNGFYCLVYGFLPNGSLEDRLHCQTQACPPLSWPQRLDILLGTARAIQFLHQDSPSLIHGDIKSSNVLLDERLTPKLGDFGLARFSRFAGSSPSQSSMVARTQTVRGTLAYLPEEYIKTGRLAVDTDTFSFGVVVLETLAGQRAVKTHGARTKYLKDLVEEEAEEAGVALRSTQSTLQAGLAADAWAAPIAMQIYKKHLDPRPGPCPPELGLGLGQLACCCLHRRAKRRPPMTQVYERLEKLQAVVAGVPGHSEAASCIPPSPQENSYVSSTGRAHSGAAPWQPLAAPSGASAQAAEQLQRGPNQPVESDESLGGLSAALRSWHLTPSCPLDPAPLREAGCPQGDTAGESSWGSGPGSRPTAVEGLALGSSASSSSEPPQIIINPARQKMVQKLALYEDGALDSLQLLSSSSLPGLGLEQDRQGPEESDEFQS
The test system of series [2] is MYD88 mutated WM and ABC DLBCL cells. Nature of the series: Antiproliferative effects, single agent. It counts as cell-based.
In series [3] the test system is Waldenstrom's, DLBCL, and Burkitt Lymphoma cell lines. Description: Cellular data for covalent IRAK1 inhibitors: cell killing. It counts as cell-based.
In series [4] the test system is MYD88 mutated WM and ABC-DLBCL cells. Description: Synergism evaluation with Ibrutinib: tumor cell killing. It counts as cell-based. The following applies: for Combination Index (CI): synergism evaluation with Ibrutinib.
Another series deals with NF-κB activation. Description: NF-κB activation under combination with Ibrutinib. It counts as cell-based.
A further series is described as follows: In vivo PK studies. The following applies: dosed IV.
The subject of series [5] is WM patients' bone marrow LPCs. Nature of the series: Tumor cell killing in WM patients' bone marrow LPCs. The format is cell-based, human. To be noted: combination with BTK inhibitor Ibrutinib.

pIC50: −log10 of the molar value. Read-outs that look alike come from different tables or passages of the source.

Chain of IRAK1 (P51617 whole entry): as above

For `C=CC(=O)Nc1cccc(C(=O)Nc2ccc(NC(=O)c3cccc(-c4ccn[nH]4)n3)cc2)c1` [JH-X-119-01], the pIC50 on IRAK1 (read-out: IRAK1 IC50) is 8.03. Also, at IRAK4 (Table 1, read-out: IC50 IRAK4), the pIC50 was less than 5.00. In addition, the “inhibition of IRAK4” value against IRAK4 (at concentrations up to 10 μM) is listed as “no inhibition”. In addition, the “kinome selectivity: off-target inhibition” value in series [1] was “only two kinases, YSK4 and MEK3”. Further, the “labelling of IRAK1 (mass spec)” value on IRAK1 cysteine 302 was “irreversibly labelled IRAK1 at cysteine 302”. Also, in series [2], the antiproliferative effects entry is reported as “antiproliferative effects”. In addition, in series [3], the “cell killing ED50” value was “micromolar”. Moreover, in [4] (combination with Ibrutinib, MYD88 mutated WM and ABC-DLBCL cells), the “tumor cell killing, combination with Ibrutinib” value is recorded as “synergistic tumor cell killing”. In [4], the “Combination Index (CI)” value was less than 1.0. In addition, the “NF-κB activation, combination with Ibrutinib” value with NF-κB activation is “suppression”. In the series “In vivo PK studies”, this compound showed a Cmax of 9.95 µM, a clearance of 18.8 mL/min/kg and a half-life of 1.61 h. Further, the “tumor cells killing in WM patients' bone marrow LPCs” value in series [5] is “more robust tumor cells killing”.
With `C=CC(=O)Nc1ccc(C(=O)Nc2ccc(NC(=O)c3cccc(-c4ccn[nH]4)n3)cc2)cc1` [JH-X-119-02], the pIC50 was 7.33 on IRAK1 (Table 1, read-out: IC50 IRAK1) and less than 5.00 at IRAK4 (Table 1, read-out: IC50 IRAK4).
As to `C=CC(=O)Nc1ccc(C(=O)Nc2cccc(NC(=O)c3cccc(-c4ccn[nH]4)n3)c2)cc1` [JH-X-119-03], the pIC50 on IRAK1 (Table 1, read-out: IC50 IRAK1) was 7.26.
For the compound `C=CC(=O)Nc1cccc(C(=O)Nc2cccc(NC(=O)c3cccc(-c4ccn[nH]4)n3)c2)c1` [JH-X-119-04], the pIC50 is 7.60 on IRAK1 (Table 1, read-out: IC50 IRAK1) and less than 5.00 at IRAK4 (Table 1, read-out: IC50 IRAK4).
Taken in the same sequence, the figures for `CCC(=O)Nc1cccc(C(=O)Nc2ccc(NC(=O)c3cccc(-c4ccn[nH]4)n3)cc2)c1` [JH-X-159] were 6.59 and less than 5.00.
For `CN(C)C/C=C/C(=O)Nc1cccc(C(=O)Nc2ccc(NC(=O)c3cccc(-c4ccn[nH]4)n3)cc2)c1` [JH-X-198], the pIC50 was 7.29 at IRAK1 (Table 1, read-out: IC50 IRAK1) and less than 5.00 at IRAK4 (Table 1, read-out: IC50 IRAK4). Moreover, the “Combination Index (CI)” value in [4] is on record as less than 1.0.
For the compound `C=CC(=O)N[C@H]1CC[C@H](NC(=O)c2ccc(NC(=O)c3cccc(-c4ccn[nH]4)n3)cc2)CC1` [JH-XII-200-1, N-(4-(((1r,4r)-4-acrylamidocyclohexyl)carbamoyl)phenyl)-6-(1H-pyrazol-5-yl)picolinamide], the pIC50 at IRAK1 (read-out: IRAK1 IC50) was 7.34; at IRAK4 (read-out: IRAK4 IC50), 6.81.
For the compound `C=CC(=O)N[C@H]1CCC[C@@H](NC(=O)c2ccc(NC(=O)c3cccc(-c4ccn[nH]4)n3)cc2)C1` [JH-XII-200-2, N-(4-(((1R,3S)-3-acrylamidocyclohexyl)carbamoyl)phenyl)-6-(1H-pyrazol-5-yl)picolinamide], the pIC50 on IRAK1 (read-out: IRAK1 IC50) was 7.62; on IRAK4 (read-out: IRAK4 IC50), 6.19.
With `C=CC(=O)NC12CC(NC(=O)c3ccc(NC(=O)c4cccc(-c5ccn[nH]5)n4)cc3)(C1)C2` [JH-XII-200-3, N-(4-((3-acrylamidobicyclo[1.1.1]pentan-1-yl)carbamoyl)phenyl)-6-(1H-pyrazol-5-yl)picolinamide], the pIC50 was 7.29 on IRAK1 (read-out: IRAK1 IC50) and 6.22 at IRAK4 (read-out: IRAK4 IC50).
On to `C=CC(=O)N[C@H]1CC[C@H](C(=O)Nc2ccc(NC(=O)c3cccc(-c4ccn[nH]4)n3)cc2)CC1` [JH-XII-205-1, N-(4-((1r,4r)-4-acrylamidocyclohexane-1-carboxamido)phenyl)-6-(1H-pyrazol-5-yl)picolinamide], for which the pIC50 at IRAK1 (read-out: IRAK1 IC50) is 7.06; at IRAK4 (read-out: IRAK4 IC50), 5.95.
Regarding `C=CC(=O)N[C@H]1CCC[C@@H](C(=O)Nc2ccc(NC(=O)c3cccc(-c4ccn[nH]4)n3)cc2)C1` [JH-XII-205-2, N-(4-((1R,3S)-3-acrylamidocyclohexane-1-carboxamido)phenyl)-6-(1H-pyrazol-5-yl)picolinamide], the pIC50 is 7.14 at IRAK1 (read-out: IRAK1 IC50); less than 5.00 on IRAK4 (Table 1, read-out: IC50 IRAK4); less than 5.00 on IRAK4 (read-out: IRAK4 IC50).
Regarding `C=CC(=O)Nc1cccc(C(=O)Nc2ccc(NC(=O)c3cccc(-c4cnoc4)n3)cc2)c1` [JH-XIII-80-1, N-(4-(3-acrylamidobenzamido)phenyl)-6-(isoxazol-4-yl)picolinamide], the pIC50 on IRAK1 (read-out: IRAK1 IC50) is 7.92; on IRAK4 (Table 1, read-out: IC50 IRAK4) it was less than 5.00; at IRAK4 (read-out: IRAK4 IC50), less than 5.00.
`C=CC(=O)Nc1cccc(C(=O)Nc2ccc(NC(=O)c3cccc(-c4cnn(C)c4)n3)cc2)c1` [JH-XIII-80-2, N-(4-(3-acrylamidobenzamido)phenyl)-6-(1-methyl-1H-pyrazol-4-yl)picolinamide]: the pIC50 is 7.17 at IRAK1 (read-out: IRAK1 IC50); less than 5.00 at IRAK4 (Table 1, read-out: IC50 IRAK4); less than 5.00 at IRAK4 (read-out: IRAK4 IC50).
As to `C=CC(=O)Nc1cccc(C(=O)Nc2ccc(NC(=O)c3cccc(-c4cn[nH]c4)n3)cc2)c1` [JH-XIII-80-3, N-(4-(3-acrylamidobenzamido)phenyl)-6-(1H-pyrazol-4-yl)picolinamide], the pIC50 is 7.66 at IRAK1 (read-out: IRAK1 IC50); less than 5.00 on IRAK4 (Table 1, read-out: IC50 IRAK4); less than 5.00 at IRAK4 (read-out: IRAK4 IC50).
Turning to `C=CC(=O)Nc1cccc(-c2cn(-c3ccc(NC(=O)c4cccc(-c5ccn[nH]5)n4)cc3)nn2)c1` [JH-XIII-96-2, N-(4-(4-(3-acrylamidophenyl)-1H-1,2,3-triazol-1-yl)phenyl)-6-(1H-pyrazol-5-yl)picolinamide], the pIC50 at IRAK1 (read-out: IRAK1 IC50) was 7.40; on IRAK4 (Table 1, read-out: IC50 IRAK4) it was less than 5.00; on IRAK4 (read-out: IRAK4 IC50), less than 5.00.
In the case of “N-(4-(4-acrylamidobenzamido)phenyl)-[2,3′-bipyridine]-6-carboxamide [JH-XIII-77]”, the pIC50 at IRAK1 (read-out: IRAK1 IC50) is 7.10; on IRAK4 (Table 1, read-out: IC50 IRAK4), less than 5.00; at IRAK4 (read-out: IRAK4 IC50), less than 5.00.

(Values after patent US10975055B2, “Inhibitors of interleukin-1 receptor-associated kinases and uses thereof” (Dana-Farber Cancer Institute, Inc., priority 2016, dated 2021).)
